Experimental data reported in patent publication US20240360165A1, “INHIBITORS OF CYCLIN DEPENDENT KINASE 7 (CDK7)” (Syros Pharmaceuticals, Inc., priority 2016, published 2024).
Where two headings read alike, the source gives them in different places.

What was measured:
[1] = biological target: T1, CDK12 (aa686-1082)/Cyclin K complex (Homo sapiens, UniProt Q9NYV4); assay: CDK12 inhibition assay (Caliper/LabChip EZ Reader kinase assay); assay type: biochemical; conditions: Table 1, CDK12 (aa686-1082)/Cyclin K 50 nM, ATP 2 mM, 3 hr at 27° C.
T1 construct: CDK12 (aa686-1082)/Cyclin K complex
T1 sequence (Q9NYV4 686-1082, species assumed): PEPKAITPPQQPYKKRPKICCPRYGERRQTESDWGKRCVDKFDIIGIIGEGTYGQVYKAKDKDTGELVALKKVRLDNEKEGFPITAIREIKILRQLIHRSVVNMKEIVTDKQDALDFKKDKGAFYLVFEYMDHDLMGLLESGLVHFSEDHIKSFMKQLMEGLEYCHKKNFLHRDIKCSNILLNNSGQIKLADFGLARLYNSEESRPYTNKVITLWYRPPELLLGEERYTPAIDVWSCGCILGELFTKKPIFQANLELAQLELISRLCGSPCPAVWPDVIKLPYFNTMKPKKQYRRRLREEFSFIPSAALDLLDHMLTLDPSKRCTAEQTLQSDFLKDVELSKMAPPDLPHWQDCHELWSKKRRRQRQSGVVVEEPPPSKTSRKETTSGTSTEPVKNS
T1 sequence (O75909 whole entry partner, species assumed, the tested form may be a part): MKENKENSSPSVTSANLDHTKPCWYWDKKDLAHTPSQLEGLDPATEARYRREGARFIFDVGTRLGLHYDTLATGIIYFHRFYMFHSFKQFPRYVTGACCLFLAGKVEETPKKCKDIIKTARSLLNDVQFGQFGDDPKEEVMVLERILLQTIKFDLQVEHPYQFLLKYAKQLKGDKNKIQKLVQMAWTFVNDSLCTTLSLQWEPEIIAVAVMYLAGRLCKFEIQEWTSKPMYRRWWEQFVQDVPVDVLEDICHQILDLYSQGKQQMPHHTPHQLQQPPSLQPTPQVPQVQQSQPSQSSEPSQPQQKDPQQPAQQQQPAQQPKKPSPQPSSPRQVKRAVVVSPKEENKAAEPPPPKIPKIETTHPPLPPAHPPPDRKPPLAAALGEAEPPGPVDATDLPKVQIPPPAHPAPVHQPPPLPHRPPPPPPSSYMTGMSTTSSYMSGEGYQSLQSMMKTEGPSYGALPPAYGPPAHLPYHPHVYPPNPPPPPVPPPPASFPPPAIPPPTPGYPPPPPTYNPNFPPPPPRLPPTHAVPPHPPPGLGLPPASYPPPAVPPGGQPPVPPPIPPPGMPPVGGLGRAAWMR

CDK9/Cyclin T1 complex = CDK9/Cyclin T1 complex (Homo sapiens, UniProt P50750); assay: CDK9 inhibition assay (Caliper/LabChip EZ Reader kinase assay); assay type: biochemical; conditions: Table 1, CDK9/Cyclin T1 8 nM, ATP 2 mM, 15 min at 27° C.
CDK9/Cyclin T1 complex, sequence (P50750 whole entry, species assumed): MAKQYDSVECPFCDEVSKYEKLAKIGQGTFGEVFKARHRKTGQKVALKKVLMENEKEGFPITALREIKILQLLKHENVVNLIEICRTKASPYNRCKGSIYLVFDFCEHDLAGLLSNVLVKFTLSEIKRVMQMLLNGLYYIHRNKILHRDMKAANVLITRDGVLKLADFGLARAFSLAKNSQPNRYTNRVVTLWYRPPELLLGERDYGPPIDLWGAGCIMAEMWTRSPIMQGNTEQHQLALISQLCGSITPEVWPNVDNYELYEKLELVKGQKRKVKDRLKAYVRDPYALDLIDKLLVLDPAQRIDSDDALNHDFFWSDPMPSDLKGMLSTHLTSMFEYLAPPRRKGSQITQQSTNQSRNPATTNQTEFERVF
CDK9/Cyclin T1 complex, sequence (O60563 whole entry partner, species assumed): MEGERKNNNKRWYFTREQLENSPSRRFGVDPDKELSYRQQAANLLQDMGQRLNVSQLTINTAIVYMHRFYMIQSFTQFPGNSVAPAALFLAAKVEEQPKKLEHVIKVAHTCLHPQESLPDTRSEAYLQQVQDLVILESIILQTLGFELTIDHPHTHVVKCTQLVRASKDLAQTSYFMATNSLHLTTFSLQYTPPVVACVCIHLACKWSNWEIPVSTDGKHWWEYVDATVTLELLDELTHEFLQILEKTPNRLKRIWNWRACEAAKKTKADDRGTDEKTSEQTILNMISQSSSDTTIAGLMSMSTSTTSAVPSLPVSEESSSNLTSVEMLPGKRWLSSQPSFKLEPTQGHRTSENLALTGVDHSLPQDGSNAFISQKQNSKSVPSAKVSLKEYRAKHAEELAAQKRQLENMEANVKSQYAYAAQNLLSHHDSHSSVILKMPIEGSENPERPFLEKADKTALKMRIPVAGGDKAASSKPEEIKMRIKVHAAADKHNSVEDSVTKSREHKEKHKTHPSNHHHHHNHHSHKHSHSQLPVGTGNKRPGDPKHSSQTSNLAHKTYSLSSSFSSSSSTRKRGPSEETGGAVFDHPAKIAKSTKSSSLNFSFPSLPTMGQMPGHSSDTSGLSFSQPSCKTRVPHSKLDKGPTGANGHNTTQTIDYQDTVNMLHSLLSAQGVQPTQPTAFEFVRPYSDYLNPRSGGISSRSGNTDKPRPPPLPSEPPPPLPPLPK
Summary of the method: (§1)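 Caliper/LabChip EZ Reader mobility-shift assays. CDK9/Cyclin T1 at 8 nM with 2 μM 5-FAM-CDK9tide peptide and 10 mM MgCl2; CDK2/Cyclin E1 at 0.5 nM with 2 μM 5-FAM-CDK7tide and 2 mM MgCl2.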

CDK2/Cyclin E1 complex = CDK2/Cyclin E1 complex (Homo sapiens, UniProt P24941); assay: CDK2 inhibition assay (Caliper/LabChip EZ Reader kinase assay); assay type: biochemical; conditions: Table 1, CDK2/Cyclin E1 0.5 nM, ATP 2 mM, 35 min at 27° C.
Summary of the method: as §1

[2] = biological target: CDK7/Cyclin H/MAT1 complex (Homo sapiens, UniProt P50613); assay: CDK7 inhibition assay (Caliper/LabChip EZ Reader kinase assay); assay type: biochemical; conditions: Table 1, CDK7/Cyclin H/MAT1 6 nM, ATP 2 mM, 35 min at 27° C.
CDK7/Cyclin H/MAT1 complex, sequence (P50613 whole entry, species assumed): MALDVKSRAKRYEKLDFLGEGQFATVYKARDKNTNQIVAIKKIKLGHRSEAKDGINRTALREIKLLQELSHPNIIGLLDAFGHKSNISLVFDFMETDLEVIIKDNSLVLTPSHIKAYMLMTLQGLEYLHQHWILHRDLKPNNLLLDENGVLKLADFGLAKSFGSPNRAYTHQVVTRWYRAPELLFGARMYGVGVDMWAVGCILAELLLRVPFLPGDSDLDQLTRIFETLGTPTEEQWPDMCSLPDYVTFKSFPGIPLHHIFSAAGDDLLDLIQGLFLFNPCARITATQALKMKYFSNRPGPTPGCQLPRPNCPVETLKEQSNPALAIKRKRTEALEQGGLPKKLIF
CDK7/Cyclin H/MAT1 complex, sequence (P51946 whole entry partner, species assumed): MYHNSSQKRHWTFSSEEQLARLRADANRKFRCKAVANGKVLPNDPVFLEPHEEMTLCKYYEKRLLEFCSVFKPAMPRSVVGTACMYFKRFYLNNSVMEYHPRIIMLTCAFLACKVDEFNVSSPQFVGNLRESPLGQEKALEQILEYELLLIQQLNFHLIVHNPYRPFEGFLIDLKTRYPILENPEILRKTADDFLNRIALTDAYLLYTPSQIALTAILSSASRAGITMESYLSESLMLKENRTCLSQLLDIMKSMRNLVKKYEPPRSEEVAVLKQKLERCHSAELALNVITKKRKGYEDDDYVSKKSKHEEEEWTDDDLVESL
CDK7/Cyclin H/MAT1 complex, sequence (P51948 whole entry partner, species assumed): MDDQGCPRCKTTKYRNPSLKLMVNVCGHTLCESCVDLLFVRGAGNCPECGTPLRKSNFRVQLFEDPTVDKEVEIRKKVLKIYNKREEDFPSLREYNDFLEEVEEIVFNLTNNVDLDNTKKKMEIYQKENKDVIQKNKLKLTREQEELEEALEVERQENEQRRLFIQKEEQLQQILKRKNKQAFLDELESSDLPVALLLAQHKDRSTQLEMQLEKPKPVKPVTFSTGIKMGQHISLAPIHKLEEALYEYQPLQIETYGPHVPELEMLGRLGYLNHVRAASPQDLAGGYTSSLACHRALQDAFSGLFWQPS
Summary of the method: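 A Perkin Elmer Caliper/LabChip EZ Reader (Waltham, MA) platform served as the basis for this CDK7 kinase inhibition assay. The work was carried out by Biortus Biosciences, located in Jiangyin, Jiangsu Province, P.R. of China. Each CDK studied had its own kinase assay, and compounds were evaluated for their ability to block CDK7 activity.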

A673 cells = assay: Inhibition of proliferation of A673 cells (CyQUANT, 72 hour); assay type: cell-based, human; conditions: A673 cells, 72 hour, CyQUANT, read-out: Inhibition of Proliferation of A673 Cells (calculated IC50)
Summary of the method: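 Human Ewing's sarcoma A673 cells in DMEM with 10% FBS and 1 mM sodium pyruvate, 37° C, 5% CO2, treated 72 h with compound from 4 μM to […] (0.5 log dilutions). Antiproliferative effect read by CyQUANT assay.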

HCC70 cells = assay: Inhibition of proliferation of HCC70 cells (CyQUANT Direct Cell Proliferation Assay, 72 hour); assay type: cell-based, human; conditions: read-out: Inhibition of Proliferation of HCC70 Cells (calculated IC50)
Summary of the method: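 Human triple-negative breast cancer HCC70 cells cultured at 37° C, 5% CO2, with compound for 72 hour. Anti-proliferative effect read by CyQUANT Direct Cell Proliferation Assay. Dinaciclib, a CDK inhibitor analog and triptolide served as positive controls.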

SMILES	IC50 [1] [µM]	IC50 (CDK9/Cyclin T1 complex) [µM]	IC50 (CDK2/Cyclin E1 complex) [µM]	IC50 [2] [nM]	IC50 ([1]; listed as 108) [µM]	IC50 (CDK9/Cyclin T1 complex; listed as 108) [µM]	IC50 (CDK2/Cyclin E1 complex; listed as 108) [µM]	IC50 ([2]; listed as 108) [nM]	IC50 ([1]; listed as 130) [µM]	IC50 ([2]; listed as 130) [nM]	IC50 ([1]; listed as 139) [µM]	IC50 (CDK9/Cyclin T1 complex; listed as 139) [µM]	IC50 (CDK2/Cyclin E1 complex; listed as 139) [µM]	IC50 ([2]; listed as 139) [nM]	IC50 (A673 cells) [nM]	IC50 (HCC70 cells; Homo sapiens, HCC70, 72 h) [nM]	IC50 (A673 cells; Homo sapiens, A673, 72 h) [nM]	IC50 (HCC70 cells) [nM]
O=c1[nH]cc(-c2ccc3c(-c4nc(N[C@H]5CCCNC5)ncc4C(F)(F)F)c[nH]c3c2)c(=O)[nH]1 [Compound 333, 5-[3-[2-[[(3S)-3-piperidyl]amino]-5-(trifluoromethyl)pyrimidin-4-yl]-1H-indol-6-yl]-1H-pyrimidine-2,4-dione]	0.2 to 5	> 5	> 5	< 20	–	–	–	–	–	–	> 5	> 5	> 5	20 to 200	200 to 5000	1000 to 5000	–	–
N#Cc1ccc2c(-c3nc(N[C@H]4CCCNC4)ncc3C(F)(F)F)c[nH]c2n1 [Compound 251, 3-[2-[[(3S)-3-piperidyl]amino]-5-(trifluoromethyl)pyrimidin-4-yl]-1H-pyrrolo [2,3-b] pyridine-6-carbonitrile]	0.2 to 5	0.2 to 5	0.2 to 5	< 20	–	–	–	–	–	–	–	–	–	–	–	< 100	< 20	–
CS(=O)(=O)c1c(C#N)ccc2c(-c3nc(N[C@H]4CCCNC4)ncc3C(F)(F)F)c[nH]c12 [Compound 232, 7-methylsulfonyl-3-[2-[[(3S)-3-piperidyl]amino]-5-(trifluoromethyl)pyrimidin-4-yl]-1H-indole-6-carbonitrile]	0.2 to 5	0.2 to 5	0.2 to 5	< 20	–	–	–	–	–	–	–	–	–	–	–	< 100	< 20	–
FC(F)(F)c1cnc(N[C@@H]2CNC[C@H](c3nnc4ccccn34)C2)nc1-c1c[nH]c2ccccc12 [Compound 267]	0.2 to 5	0.2 to 5	0.2 to 5	20 to 200	–	–	–	–	–	–	–	–	–	–	< 20	–	–	< 100
CS(=O)(=O)c1ccc2c(-c3nc(N[C@H]4CCCNC4)ncc3C(F)(F)F)c[nH]c2c1 [Compound 199, 4-(6-methylsulfonyl-1H-indol-3-yl)-N-[(3S)-3-piperidyl]-5-(trifluoromethyl) pyrimidin-2-amine]	0.2 to 5	0.2 to 5	0.2 to 5	< 20	–	–	–	–	–	–	–	–	–	–	–	100 to 1000	< 20	–
Cn1cc(-c2nc(NC3CCCNC3)ncc2C(F)(F)F)c2ccc(C#N)nc21 (stereo not shown) [Compound 273]	> 5	> 5	> 5	200 to 5000	–	–	–	–	–	–	–	–	–	–	–	1000 to 5000	200 to 5000	–
N#C[C@H]1CCN(C(=O)c2ccc3c(-c4nc(N[C@H]5CCCNC5)ncc4C(F)(F)F)c[nH]c3c2)C1 [Compound 293, (3S)-1-[3-[2-[[(3S)-3-piperidyl]amino]-5-(trifluoromethyl)pyrimidin-4-yl]-1H-indole-6-carbonyl] pyrrolidine-3-carbonitrile]	0.2 to 5	0.2 to 5	0.2 to 5	< 20	0.2 to 5	0.2 to 5	0.2 to 5	20 to 200	–	–	–	–	–	–	200 to 5000	100 to 1000	–	–
CC1(O)CCN(C(=O)c2ccc3c(-c4nc(N[C@H]5CCCNC5)ncc4C(F)(F)F)c[nH]c3c2)C1 (single isomer, unassigned) [Compound 221]	> 5	> 5	> 5	< 20	–	–	–	–	–	–	–	–	–	–	–	100 to 1000	200 to 5000	–
N#Cc1ccc2c(-c3nc(N[C@@H]4CNC[C@H](O)C4)ncc3C(F)(F)F)c[nH]c2c1 [Compound 370, 3-[2-[[(3S,5R)-5-hydroxy-3-piperidyl]amino]-5-(trifluoromethyl)pyrimidin-4-yl]-1H-indole-6-carbonitrile]	0.2 to 5	> 5	> 5	20 to 200	–	–	–	–	> 5	> 5000	–	–	–	–	200 to 5000	100 to 1000	–	–
C=CC(=O)N1CCC(CO[C@H]2CNC[C@@H](Nc3ncc(C(F)(F)F)c(-c4c[nH]c5c(S(C)(=O)=O)cccc45)n3)C2)CC1 [Compound 264]	0.2 to 5	> 5	> 5	20 to 200	–	–	–	–	–	–	–	–	–	–	–	100 to 1000	< 20	–
CCc1cnc(N[C@H]2CCCNC2)nc1-c1c[nH]c2cc(C#N)ccc12 [Compound 246]	> 5	> 5	> 5	< 20	–	–	–	–	–	–	–	–	–	–	200 to 5000	–	–	100 to 1000
COCn1cc(-c2nc(NC3CCCNC3)ncc2C(F)(F)F)c2ccc(C#N)nc21 (stereo not shown) [Compound 283]	> 5	> 5	> 5	200 to 5000	–	–	–	–	–	–	–	–	–	–	–	1000 to 5000	200 to 5000	–
CCc1cnc(N[C@H]2CCCNC2)nc1-c1c[nH]c2c(S(C)(=O)=O)c(C#N)ccc12 [Compound 263, 3-[5-ethyl-2-[[(3S)-3-piperidyl]amino]pyrimidin-4-yl]-7-methylsulfonyl-1H-indole-6-carbonitrile]	> 5	> 5	> 5	< 20	–	–	–	–	–	–	–	–	–	–	–	100 to 1000	20 to 200	–

Now from value to molecule, other results behind:

IC50 [1] [µM]	IC50 (CDK9/Cyclin T1 complex) [µM]	IC50 (CDK2/Cyclin E1 complex) [µM]	IC50 [2] [nM]	IC50 ([1]; listed as 108) [µM]	IC50 (CDK9/Cyclin T1 complex; listed as 108) [µM]	IC50 (CDK2/Cyclin E1 complex; listed as 108) [µM]	IC50 ([2]; listed as 108) [nM]	IC50 ([1]; listed as 130) [µM]	IC50 ([2]; listed as 130) [nM]	SMILES	IC50 ([1]; listed as 139) [µM]	IC50 (CDK9/Cyclin T1 complex; listed as 139) [µM]	IC50 (CDK2/Cyclin E1 complex; listed as 139) [µM]	IC50 ([2]; listed as 139) [nM]	IC50 (A673 cells) [nM]	IC50 (HCC70 cells; Homo sapiens, HCC70, 72 h) [nM]	IC50 (A673 cells; Homo sapiens, A673, 72 h) [nM]	IC50 (HCC70 cells) [nM]
0.2 to 5	0.2 to 5	0.2 to 5	< 20	–	–	–	–	–	–	CCc1cnc(NC2CCCNC2)nc1-c1c[nH]c2c(F)cccc12 (stereo not shown) [Compound 144]	–	–	–	–	–	100 to 1000	20 to 200	–
0.2 to 5	0.2 to 5	0.2 to 5	< 20	–	–	–	–	–	–	CC1(C)CC[C@H](Nc2ncc(C(F)(F)F)c(-c3c[nH]c4ccccc34)n2)CN1 [Compound 190]	–	–	–	–	–	100 to 1000	< 20	–
0.2 to 5	0.2 to 5	0.2 to 5	< 20	–	–	–	–	–	–	CCN1CCC[C@H](Nc2ncc(C(F)(F)F)c(-c3c[nH]c4cc(C#N)ccc34)n2)C1 [Compound 284]	–	–	–	–	–	100 to 1000	20 to 200	–
0.2 to 5	> 5	0.2 to 5	< 20	–	–	–	–	–	–	O=C(C1CCC(Nc2ncc(C(F)(F)F)c(-c3c[nH]c4ccccc34)n2)CN1)N1CCC(O)C1 (mixture of isomers) [Compound 250]	–	–	–	–	200 to 5000	1000 to 5000	–	–
0.2 to 5	0.2 to 5	0.02 to 0.2	20 to 200	–	–	–	–	–	–	O=C1CC[C@H](Nc2ncc(Cl)c(-c3c[nH]c4ccccc34)n2)CN1 [Compound 159]	–	–	–	–	–	1000 to 5000	200 to 5000	–
0.02 to 0.2	0.2 to 5	0.2 to 5	< 20	–	–	–	–	–	–	FC(F)(F)c1cnc(N[C@H]2CCCNC2)nc1-c1c[nH]c2c(-c3cn[nH]c3)cccc12 [Compound 170]	–	–	–	–	–	< 100	< 20	–
0.2 to 5	0.2 to 5	0.2 to 5	< 20	–	–	–	–	–	–	FC(F)(F)c1cnc(N[C@H]2CCCNC2)nc1-c1c[nH]c2cc(-c3ccn[nH]3)ccc12 [Compound 291, N-[(3S)-3-piperidyl]-4-[6-(1H-pyrazol-3-yl)-1H-indol-3-yl]-5-(trifluoromethyl) pyrimidin-2-amine]	–	–	–	–	–	100 to 1000	20 to 200	–
